In US10206394B2, “Herbicidal compounds” (Syngenta Participations AG, priority 2014, dated 2019):
Where two headings read alike, the source gives them in different places.

Columns and labels:
Experiment in all cases: Glasshouse assay for herbicidal activity (pre- and post-emergence), percentage phytotoxicity
Format in all cases: in vivo
[1] = tested on: Alopecurus myosuroides (ALOMY); details: Alopecurus myosuroides
Outline: (§1)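 Percent injury was estimated by eye on a scale where 0% means no damage and 100% complete damage. Ratings came 15 DAA post-emergence and 20 DAA pre-emergence, with plants held under 16 h light and 65% humidity at 24/18 °C or 20/16 °C day/night.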

[2] = tested on: Avena fatua (AVEFA); details: Avena fatua
Outline: as §1

[3] = tested on: Echinochloa crus-galli (ECHCG); details: Echinochloa crus-galli
Outline: as §1

[4] = tested on: Lolium perenne (LOLPE); details: Lolium perenne
Outline: as §1

Molecule `C=CCNC(=O)CC1CC(=O)C(c2c(C)cc(-c3ccc(Cl)cn3)cc2C)C1=O` (centres unmarked) [Compound B370] has a pest or weed control at 250 g/ha ([1]; post-emergence, 360 h, Rate 250 g/ha, post-emergence, visual assessment 15 DAA, 100%=total damage, 0%=no damage, read-out: Post-emergence herbicidal activity (percentage phytotoxicity) ALOMY POST) of 90%, a pest or weed control at 250 g/ha ([1]; pre-emergence, 480 h, Rate 250 g/ha, pre-emergence, visual assessment 20 DAA, 100%=total damage, 0%=no damage, read-out: Pre-emergence herbicidal activity (percentage phytotoxicity) ALOMY PRE) of 100% and a pest or weed control at 250 g/ha ([2]; post-emergence, 360 h, Rate 250 g/ha, post-emergence, visual assessment 15 DAA, 100%=total damage, 0%=no damage, read-out: Post-emergence herbicidal activity (percentage phytotoxicity) AVEFA POST) of 100%. For the same molecule, the pest or weed control at 250 g/ha ([2]; pre-emergence, 480 h, Rate 250 g/ha, pre-emergence, visual assessment 20 DAA, 100%=total damage, 0%=no damage, read-out: Pre-emergence herbicidal activity (percentage phytotoxicity) AVEFA PRE) was 100%, the pest or weed control at 250 g/ha ([3]; post-emergence, 360 h, Rate 250 g/ha, post-emergence, visual assessment 15 DAA, 100%=total damage, 0%=no damage, read-out: Post-emergence herbicidal activity (percentage phytotoxicity) ECHCG POST) was 100% and the pest or weed control at 250 g/ha ([3]; pre-emergence, 480 h, Rate 250 g/ha, pre-emergence, visual assessment 20 DAA, 100%=total damage, 0%=no damage, read-out: Pre-emergence herbicidal activity (percentage phytotoxicity) ECHCG PRE) was 100%. The pest or weed control at 250 g/ha ([4]; post-emergence, 360 h, Rate 250 g/ha, post-emergence, visual assessment 15 DAA, 100%=total damage, 0%=no damage, read-out: Post-emergence herbicidal activity (percentage phytotoxicity) LOLPE POST) was 100% and the pest or weed control at 250 g/ha ([4]; pre-emergence, 480 h, Rate 250 g/ha, pre-emergence, visual assessment 20 DAA, 100%=total damage, 0%=no damage, read-out: Pre-emergence herbicidal activity (percentage phytotoxicity) LOLPE PRE) was 100%.
With `Cc1cc(-c2ncc(C#N)cc2Cl)cc(C)c1C1C(=O)CC(CC(=O)NC(C)(C)C)C1=O` (centres unmarked) [Compound B83] the pest or weed control at 250 g/ha ([1]; post-emergence, 360 h, 250 g/ha, post-emergence, 15 DAA, visual assessment (100%=total damage, 0%=no damage), read-out: Post-emergence herbicidal activity (percentage phytotoxicity) ALOMY POST) was 70%, the pest or weed control at 250 g/ha ([1]; pre-emergence, 480 h, 250 g/ha, pre-emergence, 20 DAA, visual assessment (100%=total damage, 0%=no damage), read-out: Pre-emergence herbicidal activity (percentage phytotoxicity) ALOMY PRE) was 80% and the pest or weed control at 250 g/ha ([2]; post-emergence, 360 h, 250 g/ha, post-emergence, 15 DAA, visual assessment (100%=total damage, 0%=no damage), read-out: Post-emergence herbicidal activity (percentage phytotoxicity) AVEFA POST) was 80%. It also gave a pest or weed control at 250 g/ha ([2]; pre-emergence, 480 h, 250 g/ha, pre-emergence, 20 DAA, visual assessment (100%=total damage, 0%=no damage), read-out: Pre-emergence herbicidal activity (percentage phytotoxicity) AVEFA PRE) of 30%, a pest or weed control at 250 g/ha ([3]; post-emergence, 360 h, 250 g/ha, post-emergence, 15 DAA, visual assessment (100%=total damage, 0%=no damage), read-out: Post-emergence herbicidal activity (percentage phytotoxicity) ECHCG POST) of 90% and a pest or weed control at 250 g/ha ([3]; pre-emergence, 480 h, 250 g/ha, pre-emergence, 20 DAA, visual assessment (100%=total damage, 0%=no damage), read-out: Pre-emergence herbicidal activity (percentage phytotoxicity) ECHCG PRE) of 90%. For the same molecule, the pest or weed control at 250 g/ha ([4]; post-emergence, 360 h, 250 g/ha, post-emergence, 15 DAA, visual assessment (100%=total damage, 0%=no damage), read-out: Post-emergence herbicidal activity (percentage phytotoxicity) LOLPE POST) was 80% and the pest or weed control at 250 g/ha ([4]; pre-emergence, 480 h, 250 g/ha, pre-emergence, 20 DAA, visual assessment (100%=total damage, 0%=no damage), read-out: Pre-emergence herbicidal activity (percentage phytotoxicity) LOLPE PRE) was 80%.
For `Cc1ccsc1CNC(=O)CC1CC(=O)C(c2c(C)cc(-c3ncc(Cl)cc3F)cc2C)C1=O` (centres unmarked) [Compound A131], the pest or weed control at 250 g/ha ([1]; post-emergence, 360 h, Rate 250 g/ha, post-emergence, assessed visually 15 DAA, 100%=total damage, 0%=no damage, read-out: Post-emergence herbicidal activity (percentage phytotoxicity) ALOMY POST) was 90%, the pest or weed control at 250 g/ha ([1]; pre-emergence, 480 h, Rate 250 g/ha, pre-emergence, assessed visually 20 DAA, 100%=total damage, 0%=no damage, read-out: Pre-emergence herbicidal activity (percentage phytotoxicity) ALOMY PRE) was 40% and the pest or weed control at 250 g/ha ([2]; post-emergence, 360 h, Rate 250 g/ha, post-emergence, assessed visually 15 DAA, 100%=total damage, 0%=no damage, read-out: Post-emergence herbicidal activity (percentage phytotoxicity) AVEFA POST) was 100%. The pest or weed control at 250 g/ha ([2]; pre-emergence, 480 h, Rate 250 g/ha, pre-emergence, assessed visually 20 DAA, 100%=total damage, 0%=no damage, read-out: Pre-emergence herbicidal activity (percentage phytotoxicity) AVEFA PRE) was 50%, the pest or weed control at 250 g/ha ([3]; post-emergence, 360 h, Rate 250 g/ha, post-emergence, assessed visually 15 DAA, 100%=total damage, 0%=no damage, read-out: Post-emergence herbicidal activity (percentage phytotoxicity) ECHCG POST) was 100% and the pest or weed control at 250 g/ha ([3]; pre-emergence, 480 h, Rate 250 g/ha, pre-emergence, assessed visually 20 DAA, 100%=total damage, 0%=no damage, read-out: Pre-emergence herbicidal activity (percentage phytotoxicity) ECHCG PRE) was 100%. It also gave a pest or weed control at 250 g/ha ([4]; post-emergence, 360 h, Rate 250 g/ha, post-emergence, assessed visually 15 DAA, 100%=total damage, 0%=no damage, read-out: Post-emergence herbicidal activity (percentage phytotoxicity) LOLPE POST) of 100% and a pest or weed control at 250 g/ha ([4]; pre-emergence, 480 h, Rate 250 g/ha, pre-emergence, assessed visually 20 DAA, 100%=total damage, 0%=no damage, read-out: Pre-emergence herbicidal activity (percentage phytotoxicity) LOLPE PRE) of 70%.
`Cc1cc(-c2ncc(Cl)cn2)cc(C)c1C1=C(OC(=O)c2ccc(F)cc2)CC(CC(=O)NC(C)(C)C)C1=O` (centres unmarked) [Compound P2] showed a pest or weed control at 250 g/ha ([1]; post-emergence, 360 h, post-emergence, 250 g/ha, 15 DAA, visual score (100%=total damage; 0%=no damage), read-out: ALOMY POST herbicidal activity (percentage phytotoxicity)) of 100%, a pest or weed control at 250 g/ha ([1]; pre-emergence, 480 h, pre-emergence, 250 g/ha, 20 DAA, visual score (100%=total damage; 0%=no damage), read-out: ALOMY PRE herbicidal activity (percentage phytotoxicity)) of 90% and a pest or weed control at 250 g/ha ([2]; post-emergence, 360 h, post-emergence, 250 g/ha, 15 DAA, visual score (100%=total damage; 0%=no damage), read-out: AVEFA POST herbicidal activity (percentage phytotoxicity)) of 100%. For the same molecule, the pest or weed control at 250 g/ha ([2]; pre-emergence, 480 h, pre-emergence, 250 g/ha, 20 DAA, visual score (100%=total damage; 0%=no damage), read-out: AVEFA PRE herbicidal activity (percentage phytotoxicity)) was 90%, the pest or weed control at 250 g/ha ([3]; post-emergence, 360 h, post-emergence, 250 g/ha, 15 DAA, visual score (100%=total damage; 0%=no damage), read-out: ECHCG POST herbicidal activity (percentage phytotoxicity)) was 100% and the pest or weed control at 250 g/ha ([3]; pre-emergence, 480 h, pre-emergence, 250 g/ha, 20 DAA, visual score (100%=total damage; 0%=no damage), read-out: ECHCG PRE herbicidal activity (percentage phytotoxicity)) was 100%. It also gave a pest or weed control at 250 g/ha ([4]; post-emergence, 360 h, post-emergence, 250 g/ha, 15 DAA, visual score (100%=total damage; 0%=no damage), read-out: LOLPE POST herbicidal activity (percentage phytotoxicity)) of 100% and a pest or weed control at 250 g/ha ([4]; pre-emergence, 480 h, pre-emergence, 250 g/ha, 20 DAA, visual score (100%=total damage; 0%=no damage), read-out: LOLPE PRE herbicidal activity (percentage phytotoxicity)) of 100%.
